Read-outs that look alike come from different tables or passages of the source.
Key:
[1] = test system: colon cancer cells (HCT116); assay: Cancer cell line growth inhibition (SRB assay); type: cell-based; details: Homo sapiens, HCT-116, read-out: Cancer Cell Line GI50 Range HCT116
Breast cancer cells = assay: Cancer cell line growth inhibition (SRB assay); type: cell-based; details: Homo sapiens; MDA-MB-468; read-out: Cancer Cell Line GI50 Range MDA-MB-468
TICs (Colon 12) = assay: Colon tumor-initiating cell growth inhibition (Alamar Blue); type: cell-based; details: 216 h, 9 days, read-out: Tumor Initiating Cell GI50 Range Colon 12
[2] = test system: ovarian cancer cells (PA-1); assay: Cancer cell line growth inhibition (SRB assay); type: cell-based; details: Homo sapiens, PA-1; read-out: Cancer Cell Line GI50 Range PA-1
human TTK = biological target: T1, human TTK (Homo sapiens, UniProt P33981); assay: TTK inhibition assay (indirect ELISA); type: biochemical; details: read-out: TTK IC50 Range
T1 construct: amino terminal GST fusion of full length human TTK; purchased Invitrogen
T1 sequence (P33981 1-857): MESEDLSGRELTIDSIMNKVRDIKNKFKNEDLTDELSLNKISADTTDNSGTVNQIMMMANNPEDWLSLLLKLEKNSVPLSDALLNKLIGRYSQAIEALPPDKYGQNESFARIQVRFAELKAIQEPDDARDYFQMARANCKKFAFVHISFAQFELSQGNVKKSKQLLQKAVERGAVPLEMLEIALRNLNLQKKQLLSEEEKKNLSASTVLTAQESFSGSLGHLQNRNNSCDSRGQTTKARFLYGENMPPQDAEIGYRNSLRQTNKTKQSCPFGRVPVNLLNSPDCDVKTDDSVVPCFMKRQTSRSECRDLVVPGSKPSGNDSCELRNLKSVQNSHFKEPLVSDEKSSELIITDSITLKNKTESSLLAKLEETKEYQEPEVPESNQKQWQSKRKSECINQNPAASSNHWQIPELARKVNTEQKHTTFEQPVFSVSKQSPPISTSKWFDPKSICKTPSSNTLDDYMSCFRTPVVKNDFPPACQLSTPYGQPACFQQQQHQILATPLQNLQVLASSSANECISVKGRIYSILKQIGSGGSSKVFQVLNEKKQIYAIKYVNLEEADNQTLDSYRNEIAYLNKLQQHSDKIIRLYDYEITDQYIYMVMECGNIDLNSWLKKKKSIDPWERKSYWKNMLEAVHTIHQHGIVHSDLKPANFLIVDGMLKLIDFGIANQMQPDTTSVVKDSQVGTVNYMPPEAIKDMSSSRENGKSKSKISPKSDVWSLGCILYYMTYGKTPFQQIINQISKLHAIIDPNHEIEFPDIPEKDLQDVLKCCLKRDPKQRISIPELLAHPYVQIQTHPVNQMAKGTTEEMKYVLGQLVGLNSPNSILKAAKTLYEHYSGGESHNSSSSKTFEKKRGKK

TICs (Ovarian 2393A) = assay: Ovarian tumor-initiating cell growth inhibition (Alamar Blue); type: cell-based; details: 144 h; ovarian TICs, 6 days, Alamar Blue; read-out: Tumor Initiating Cell GI50 Range Ovarain 2393A
[3] = HCT116 colon cancer cells, SRB assay

| SMILES | GI50 [1] [nM] | GI50 (Breast cancer cells) [nM] | GI50 (TICs (Colon 12); Colon 12 TICs) [nM] | GI50 [2] [nM] | IC50 (human TTK) [nM] | GI50 [1, 3] [nM] | GI50 (TICs (Colon 12); colon TICs, Alamar Blue) [nM] | GI50 (TICs (Ovarian 2393A)) [nM] |
| --- | --- | --- | --- | --- | --- | --- | --- | --- |
| O=C(NCC1(N2CCOCC2)CCCCC1)c1ccc2[nH]nc(-c3ccc(N4[C@@H]5CC[C@H]4COC5)cc3)c2c1 [Example A501, 3-(4-((1R,5S)-3-oxa-8-azabicyclo[3.2.1]octan-8-yl)phenyl)-N-((1-morpholinocyclohexyl)methyl)-1H-indazole-5-carboxamide] | < 100 | < 100 | < 100 | < 100 | < 100 | – | – | – |
| O=C(NC(c1ccsc1)C1CC1)c1ccc2[nH]nc(-c3ccc(N4CCOCC4)cc3)c2c1 (stereo not shown) [Example A35, N-(cyclopropyl(thiophen-3-yl)methyl)-3-(4-morpholinophenyl)-1H-indazole-5-carboxamide] | – | – | – | – | – | < 100 | > 500 | 100 to 500 |
| O=C(N[C@H](c1ccccn1)C1CCCC1)c1ccc2[nH]nc(-c3ccc(N4CC(N5CCOCC5)C4)cc3)c2c1 [Example A314] | < 100 | < 100 | < 100 | < 100 | < 100 | – | – | – |
| CCc1cccc(CC)c1NC(=O)Nc1ccc2[nH]nc(-c3ccc(OC4CCN(C)CC4)cc3)c2c1 [Example A46, 1-(2,6-diethylphenyl)-3-(3-(4-((1-methylpiperidin-4-yl)oxy)phenyl)-1H-indazol-5-yl)urea] | – | – | – | – | – | < 100 | > 500 | 100 to 500 |
| O=C(N[C@@H](c1ncccn1)C1CCCC1)c1ccc2[nH]nc(-c3ccc(N4C5CCC4CC(O)C5)cc3)c2c1 (stereo partly drawn) [Example A366, N-((R)-cyclopentyl(pyrimidin-2-yl)methyl)-3-(4-((1R,3R,5S)-3-hydroxy-8-azabicyclo[3.2.1]octan-8-yl)phenyl)-1H-indazole-5-carboxamide] | < 100 | < 100 | < 100 | < 100 | < 100 | – | – | – |
| O=C(N[C@@H](c1ccccn1)C1CCCC1)c1ccc2[nH]nc(-c3ccc(N4C5CCC4CC(O)C5)cc3)c2c1 (stereo partly drawn) [Example A364, N-((R)-cyclopentyl(pyridin-2-yl)methyl)-3-(4-((1R,3R,5S)-3-hydroxy-8-azabicyclo[3.2.1]octan-8-yl)phenyl)-1H-indazole-5-carboxamide] | < 100 | < 100 | < 100 | < 100 | < 100 | – | – | – |
| O=C(Nc1ccc2[nH]nc(-c3ccc(N4CCOCC4)cc3)c2c1)C(c1ccsc1)N1CCCC1 (stereo not shown) [Example A4] | – | – | – | – | – | < 100 | < 100 | 100 to 500 |
| O=C(N[C@H](c1ncccn1)C1CCCC1)c1ccc2[nH]nc(-c3ccc(N4C5CCC4CC(O)C5)cc3)c2c1 (stereo partly drawn) [Example A367, N-((S)-cyclopentyl(pyrimidin-2-yl)methyl)-3-(4-((1R,3S,5S)-3-hydroxy-8-azabicyclo[3.2.1]octan-8-yl)phenyl)-1H-indazole-5-carboxamide] | < 100 | < 100 | < 100 | < 100 | < 100 | – | – | – |
| CO[C@@H](C(=O)Nc1ccc2[nH]nc(-c3ccc(OC4CCN(C)CC4)cc3)c2c1)c1ccccc1 [Example A27, (R)-2-methoxy-N-(3-(4-((1-methylpiperidin-4-yl)oxy)phenyl)-1H-indazol-5-yl)-2-phenylacetamide] | – | – | – | – | – | < 100 | 100 to 500 | 100 to 500 |
| CN1CCC(Oc2ccc(-c3n[nH]c4ccc(C(=O)NC(c5ccsc5)C5CC5)cc34)cc2)CC1 (stereo not shown) [Example A33, N-(cyclopropyl(thiophen-3-yl)methyl)-3-(4-((1-methylpiperidin-4-yl)oxy)phenyl)-1H-indazole-5-carboxamide] | – | – | – | – | – | < 100 | 100 to 500 | 100 to 500 |
| C[C@H]1CCCN1[C@H](C(=O)Nc1ccc2[nH]nc(-c3ccc(OC4CCN(C)CC4)cc3)c2c1)c1ccsc1 [Example A41, (S)-N-(3-(4-((1-methylpiperidin-4-yl)oxy)phenyl)-1H-indazol-5-yl)-2-((S)-2-methylpyrrolidin-1-yl)-2-(thiophen-3-yl)acetamide] | – | – | – | – | – | < 100 | 100 to 500 | < 100 |
| CC(C)[C@H](NC(=O)c1ccc2[nH]nc(-c3ccc(N4CC(N5CCOCC5)C4)cc3)c2c1)c1ccccc1Cl [Example A313, (S)-N-(1-(2-chlorophenyl)-2-methylpropyl)-3-(4-(3-morpholinoazetidin-1-yl)phenyl)-1H-indazole-5-carboxamide] | < 100 | < 100 | < 100 | < 100 | < 100 | – | – | – |
| CCC[C@H](NC(=O)c1ccc2[nH]nc(-c3ccc(OC4CC5CCC(C4)N5C4COC4)cc3)c2c1)c1ccccc1 (stereo partly drawn) [Example A344, 3-(4-(((1R,3R,5S)-8-(oxetan-3-yl)-8-azabicyclo[3.2.1]octan-3-yl)oxy)phenyl)-N-((S)-1-phenylbutyl)-1H-indazole-5-carboxamide] | > 500 | > 500 | – | 100 to 500 | < 100 | – | – | – |
| C[C@@H](O)CN1CCC(Oc2ccc(-c3n[nH]c4ccc(C(=O)NCC5(OC6CCCC6)CCCCC5)cc34)cc2)CC1 [Example A444, (R)-N-((1-(cyclopentyloxy)cyclohexyl)methyl)-3-(4-((1-(2-hydroxypropyl)piperidin-4-yl)oxy)phenyl)-1H-indazole-5-carboxamide] | > 500 | > 500 | – | > 500 | < 100 | – | – | – |
| O=C(N[C@@H](c1ccccn1)C1CC1)c1ccc2[nH]nc(-c3ccc(N4CC(N5CCOCC5)C4)cc3)c2c1 [Example A316, (R)-N-(cyclopropyl(pyridin-2-yl)methyl)-3-(4-(3-morpholinoazetidin-1-yl)phenyl)-1H-indazole-5-carboxamide] | 100 to 500 | 100 to 500 | – | 100 to 500 | < 100 | – | – | – |
| O=C(NCC1(c2ccncc2)CC1)c1ccc2[nH]nc(-c3ccc(N4CCOCC4)cc3)c2c1 [Example A464, 3-(4-morpholinophenyl)-N-((1-(pyridin-4-yl)cyclopropyl)methyl)-1H-indazole-5-carboxamide] | > 500 | > 500 | – | 100 to 500 | 100 to 500 | – | – | – |
| O=C(NC(c1ccccc1)C1CC1)c1ccc2[nH]nc(-c3ccc(O[C@H]4C[C@H]5CC[C@@H](C4)N5)cc3)c2c1 (stereo partly drawn) [Example A375, 3-(4-((1R,3R,5S)-8-azabicyclo[3.2.1]octan-3-yloxy)phenyl)-N-(cyclopropyl(phenyl)methyl)-1H-indazole-5-carboxamide] | < 100 | 100 to 500 | – | < 100 | < 100 | – | – | – |
| O=C(N[C@H](c1ccccn1)C1CC1)c1ccc2[nH]nc(-c3ccc(N4[C@@H]5CC[C@H]4COC5)cc3)c2c1 [Example A414, 3-(4-((1R,5S)-3-oxa-8-azabicyclo[3.2.1]octan-8-yl)phenyl)-N-((S)-cyclopropyl(pyridin-2-yl)methyl)-1H-indazole-5-carboxamide] | < 100 | < 100 | < 100 | < 100 | < 100 | – | – | – |
| CC(C)C[C@H](NC(=O)c1ccc2[nH]nc(-c3ccc(N4C5CCCC4CC(O)C5)cc3)c2c1)c1ccccn1 (stereo partly drawn) [Example A304, 3-(4-((1R,3S,5S)-3-hydroxy-9-azabicyclo[3.3.1]nonan-9-yl)phenyl)-N-((S)-3-methyl-1-(pyridin-2-yl)butyl)-1H-indazole-5-carboxamide] | 100 to 500 | 100 to 500 | – | 100 to 500 | < 100 | – | – | – |
| CN1CCC(=O)c2cc(-c3n[nH]c4ccc(C(=O)N[C@H](c5ccccn5)C5CCCC5)cc34)ccc21 [Example A242, (S)-N-(cyclopentyl(pyridin-2-yl)methyl)-3-(1-methyl-4-oxo-1,2,3,4-tetrahydroquinolin-6-yl)-1H-indazole-5-carboxamide] | > 500 | > 500 | – | 100 to 500 | < 100 | – | – | – |
| CC1(C)CC(=O)c2cc(-c3n[nH]c4ccc(C(=O)N[C@H](c5ccccn5)C5CC5)cc34)ccc2O1 [Example A236, (S)-N-(cyclopropyl(pyridin-2-yl)methyl)-3-(2,2-dimethyl-4-oxochroman-6-yl)-1H-indazole-5-carboxamide] | > 500 | > 500 | – | > 500 | < 100 | – | – | – |
